Patent US20100150930A1, “MAGE-11 AS A MARKER FOR ENDOMETRIAL RECEPTIVITY TO EMBRYO TRANSPLANTATION AND A MARKER AND THERAPEUTIC TARGET IN CASTRATION-RECURRENT PROSTATE CANCER” (The University of North Carolina at Chapel Hill, priority 2007, published 2010)

How the values were obtained:
MAGE-11 mRNA [1] = test: MAGE-11 mRNA by real-time PCR in ECC-1 cells; type: cell-based, human; conditions: for change in MAGE-11 mRNA levels: 100 Units/ml hCG, 10 nM progesterone, 10 nM DHT or 10 ng/ml EGF
Protocol: (§1) For MAGE-11 and AR mRNA in the human endometrial ECC-1 and Ishikawa cell lines, cells were passed 4 days prior to each experiment into medium without phenol red containing 5% charcoal stripped serum (Atlanta Biologicals, Lawrenceville, Ga.). […] RNA was extracted using RNeasy Plus Mini kit (Qiagen, Valencia, Calif.) and cDNA prepared from 4 μg total RNA as above. β-Glucuronidase (GusB) forward primer 5′-[…]-3′ (SEQ ID NO:4) and reverse primer 5′-[…]-3′ (SEQ ID NO:5) amplify a 65 by region coding for amino acid residues 120-140. The 5′-[…]-3′ (SEQ ID NO:6) GusB probe overlaps the exon 2 and 3 boundary. PCR was carried out in 20 μl reactions containing cDNA from 0.4 μg total RNA, 4 μl LightCycler TaqMan Master mix (Roche, Indianapolis, Ind.) and 0.5 μl 20× TaqMan Mix (Applied Biosystems, Foster City, Calif.) for AR or MAGE-11, or 0.5 μM primer and 0.2 μM probe for GusB. PCR reactions were 1 cycle at 95° C. for 10 min followed by 55 cycles of 95° C. for 15 sec, 60° C. for 25 sec and 72° C. for 1 sec in a Roche Lightcycler. […] Results were averaged from duplicates of 6 or 10 cm dishes of ECC-1 or Ishikawa cell cultures.

AR mRNA = AR mRNA by real-time PCR in ECC-1 cells; type: cell-based, human
Protocol: as §1

MAGE-11 mRNA [2] = test: MAGE-11 mRNA by real-time PCR in Ishikawa cells; type: cell-based, human; conditions: for change in MAGE-11 mRNA levels: 100 Units/ml hCG, 10 nM progesterone, 10 nM DHT or 10 ng/ml EGF
Protocol: as §1

Flag-MAGE-11 = conditions: COS cells, with wild-type AR, 2 and 10 nM DHT, 24 h
PR-B [3] = test: PR immunoblot in Ishikawa cells; type: cell-based, human; conditions: 10 nM E2 for 48 h
Protocol: (§2) Immunoblot analysis. MAGE-11, AR, PR and ERα protein levels in ECC-1 (2×10^6/6 cm dish) and Ishikawa cells (4×10^6/10 cm dish) were determined by immunoblot. Cells were plated in medium without phenol red containing 5% charcoal stripped serum after culturing in the same media for 4 days. Cells were treated, washed and harvested in cold phosphate buffered saline containing 1 mM dithiothreitol, 1 mM phenylmethylsulfonyl fluoride, 5 μg/ml leupeptin, 5 μg/ml pepstatin A and 5 μg/ml aprotinin, and solubilized in buffer containing 1% Triton X-100, 0.15 M NaCl, 0.5 mM EDTA, 1% sodium deoxycholate, 0.1% SDS, 50 mM Tris-HCl, pH 7.4 and protease inhibitors listed above. […] Protein concentration was determined by BioRad assay using bovine serum albumin as standard.

MAGE-11 mRNA [4] = test: MAGE-11 mRNA by real time RT-PCR in LNCaP cells; type: cell-based, human
PR-B [5] = test: PR immunoblot in ECC-1 cells; type: cell-based, human; conditions: 10 nM E2 for 48 h
Protocol: as §2

MAGE-11 protein = test: MAGE-11 immunoblot in Ishikawa cells; type: cell-based, human; conditions: 10 nM E2, 48 h
Protocol: as §2

C[C@]12CC[C@@H]3c4ccc(O)cc4C[C@@H](CCCCCCCCC[S+]([O-])CCCC(F)(F)C(F)(F)F)[C@H]3[C@@H]1CC[C@@H]2O (stereo partly shown) [ICI-182,780]
effect on MAGE-11 mRNA levels (MAGE-11 mRNA [1]; ECC-1 cells, 1 μM ICI-182,780 in the absence and presence of E2 (0.1 nM), 48 h): increased | effect on E2 induced increase in AR mRNA (AR mRNA; 1 μM ICI-182,780): blocked

EGF: EGF growth factor, used at 10 ng/ml
change in MAGE-11 mRNA levels (MAGE-11 mRNA [1]; ECC-1 cells): unchanged | change in MAGE-11 mRNA levels (MAGE-11 mRNA [2]): unchanged

C[C@]12CCC(=O)C[C@@H]1CC[C@@H]1[C@@H]2CC[C@]2(C)[C@@H](O)CC[C@@H]12 [DHT, dihydrotestosterone]
effect on MAGE-11 protein levels (Flag-MAGE-11): declined | change in MAGE-11 mRNA levels (MAGE-11 mRNA [1]; ECC-1 cells): unchanged | change in MAGE-11 mRNA levels (MAGE-11 mRNA [2]): unchanged

C=C[C@@]1(C)CC(=O)[C@]2(O)[C@@]3(C)[C@@H](O)CCC(C)(C)[C@@H]3[C@H](O)[C@H](OC(C)=O)[C@@]2(C)O1 [forskolin]
increase in MAGE-11 mRNA levels (MAGE-11 mRNA [1]; ECC-1 cells, 50 μM): ~4 fold | increase in MAGE-11 mRNA levels (MAGE-11 mRNA [2]; 50 μM): ~4 fold

C[C@]12CC[C@@H]3c4ccc(O)cc4CC[C@H]3[C@@H]1CC[C@@H]2O [E2, 17β-estradiol]
effect on PR-B levels (PR-B [3]): increased | effect on cyclic-AMP induction of MAGE-11 mRNA (MAGE-11 mRNA [4]): not inhibited | time required for inhibitory effect on MAGE-11 mRNA (MAGE-11 mRNA [1]; ECC-1 cells): more than 6 h | effect on increase in MAGE-11 mRNA levels during culture (MAGE-11 mRNA [1]; ECC-1 cells, 0.01 nM E2, dose response, 48 h): partial inhibition | effect on increase in MAGE-11 mRNA levels during culture (MAGE-11 mRNA [1]; ECC-1 cells, 10 nM E2, 72 h culture in phenol red-free, charcoal stripped serum medium): blocked | effect on cAMP induced increase in MAGE-11 mRNA (MAGE-11 mRNA [1]; ECC-1 cells, 10 nM E2 with 2 mM dibutyryl-cAMP, greater extent than in Ishikawa cells): inhibited | concentration required to partially inhibit MAGE-11 expression relative to that required to increase AR expression (fold less) (MAGE-11 mRNA [1]; endometrial cell lines): ~100 fold | effect on PR-B levels (PR-B [5]): increased | effect on ~67 kDa MAGE-11 protein level (MAGE-11 protein): declined | increase in AR mRNA levels (AR mRNA; 10 nM E2): ~3 fold | E2 concentration required to increase AR mRNA (AR mRNA; dose response, 48 h): 1 nM | effect on cAMP induced increase in MAGE-11 mRNA (MAGE-11 mRNA [2]; 10 nM E2 with dibutyryl-cAMP, 48 h, lesser extent than in ECC-1 cells): inhibited

CC(=O)[C@H]1CC[C@H]2[C@@H]3CCC4=CC(=O)CC[C@]4(C)[C@H]3CC[C@]12C [progesterone]
MAGE-11 mRNA with progesterone after E2 pretreatment (MAGE-11 mRNA [1]; ECC-1 cells, pretreatment with 10 nM E2 for 48 h (data not shown)): no increase | change in MAGE-11 mRNA levels (MAGE-11 mRNA [1]; ECC-1 cells): unchanged | change in MAGE-11 mRNA levels (MAGE-11 mRNA [2]): unchanged | MAGE-11 mRNA with progesterone after E2 pretreatment (MAGE-11 mRNA [2]; pretreatment with 10 nM E2 for 48 h (data not shown)): no increase
